Results on 12 molecules are retold here after patent US20230115907A1, “HETEROCYCLIC COMPOUND AND PHARMACEUTICAL COMPOSITION, PREPARATION METHOD, INTERMEDIATE AND USE THEREOF” (EVOPOINT BIOSCIENCES CO., LTD., priority 2019, published 2023).

Series [1] in a line: In vivo pharmacokinetics after intragastric administration in mice. As to conditions: single intragastric administration, 20 mg/kg. Here is the method: Male 1CR mice were divided into different groups with 3 mice in each group, and single intragastric administration was conducted for each group. The compounds were each formulated with 10% DMSO/10% Solutol/80% ([…]) to reach an appropriate concentration and then administered intragastrically at 20 mg/kg. Blood was taken 5 min, 15 min, 30 min, 1 h, 2 h, 4 h, 6 h, 8 h and 24 h after administration, and then subjected to EDTA-K2 anticoagulation. The concentration of the compound in the plasma was quantitatively detected by an LC-MS/MS method.

The test system of series [2] is human colon cancer cells HCT116 xenograft tumor. Briefly: In vivo efficacy in subcutaneous xenograft tumor model of human colon cancer cells HCT116. Further details: species or system BALB/c nude mice. Here is the method:
HCT116 tumor cells used in this test were purchased from ATCC. HCT116 tumor cells were cultured in McCoy's 5a medium containing inactivated 10% fetal bovine serum, 100 U/mL penicillin, 100 μg/mL streptomycin and 2 mM glutamine in an incubator at 37° C./5% CO2. The cells were divided and transferred to other bottles every 3 to 4 days for passaging when the culture bottle was full of cells. The tumor cells in the logarithmic growth phase were used for tumor seeding in vivo.
HCT116 tumor cells resuspended in serum-free McCoy's 5a culture solution were seeded subcutaneously into the right costal part of male BALB/c nude mice at 5×10^6/0.1 mL. When the tumor grew to 101 mm^3, animals with uniform tumor volume were selected and divided into groups with 8 animals in each group for administration, and the specific administration regimens are shown in Table 6 below.
Tumor volume: the long and short diameters of the tumor were measured twice every week using a vernier caliper for calculating the tumor volume, and the calculation formula was:
volume=0.5×long diameter×short diameter^2.
[…]=mean value of relative tumor volume of treatment group/mean value of relative tumor volume of control group×100
Tumor growth inhibition rate(TGI,%)=(1−T/C)×100
Statistical analysis between groups was performed for tumor volume using One-Way ANOVA test, and a significant difference was considered to be present when p<0.05.
On the technique in general: Xenograft models place foreign cells or tissue in a host animal.

The test system of a further series is HCT116 cells. Nature of the series: Inhibition of cell proliferation, CellTiter-Glo, HCT116. As to conditions: Homo sapiens, HCT-116, 72 h; Efficacy Example 3 (Table 3), incubation for 3 days. The series is classed as cell-based. As for the experimental part:
(§1) HCC70 cells and OVCAR3 cells were digested and counted. Cells were diluted to an appropriate concentration according to cell density. 100 μL of cells were added to each well of a 96-well plate. Medium wells served as blank control (Min). The cells were incubated overnight in an incubator at 37° C./5% CO2.
(§2) A 200-fold stock solution of a compound was prepared with DMSO, and the compound was diluted with growth medium to a 3-fold stock solution, i.e., […] of each of 200-fold stock solutions of compound at different concentrations was added to 197 μL of medium. 50 μL of diluted compound was added to each well and the mixture was incubated at 37° C./5% CO2 for 72 h.
(§3) The 96-well plate was equilibrated to room temperature before detection. 40 μL of CellTiter-Glo solution was added to each well. The mixture was mixed for 2 min using a horizontal shaker to induce cell lysis. The mixture was incubated at room temperature for 60 min to stabilize […] signals. Fluorescence values were read on ENVISION.
(§4) (2) % inhibition rate=(maximum signal−compound signal)/(maximum signal−minimum signal)×100
(§5) The effect of SZ-015200, SZ-015256 and SZ-015268 on cell proliferation after incubation with HCC70, OVCAR-3, HCT116 and HCC1806 cells for 3 days was detected according to the method described in Efficacy Example 2, and the results are shown in Table 3.

For a further series, the system named is HCC1806 cells. Briefly: Inhibition of cell proliferation, CellTiter-Glo, HCC1806. The series is classed as cell-based. As to conditions: Homo sapiens, HCC1806, 72 h; Efficacy Example 3 (Table 3), incubation for 3 days. Here is the method: as §1, §2, §3, §4, §5
The nature of series [3]: In vivo pharmacokinetics after intragastric administration in rats. Further details: species or system SD rats. As to conditions: single intragastric administration, 40 mg/kg. Here is the method:
Male SD rats were divided into different groups with 3 rats in each group, and single intragastric administration was conducted for each group. The compounds were each formulated with 10% DMSO/10% Solutol/80% (20% Captisol) to reach an appropriate concentration and then administered intragastrically at 40 mg/kg. Blood was taken 5 min, 15 min, 30 min, 1 h, 2 h, 4 h, 6 h, 8 h and 24 h after administration, and then subjected to EDTA-K2 anticoagulation. The concentration of the compound in the plasma was quantitatively detected by an LC-MS/MS method.

In the next series the test system is OVCAR3 cells. Briefly: Inhibition of cell proliferation, CellTiter-Glo, OVCAR3. It counts as cell-based. To be noted: Homo sapiens, OVCAR-3, 72 h. As for the experimental part: (§6) The compounds were each prepared with 100% DMSO into 10 mM mother liquor.
as §1, §2, §3
(§7) (1) Data was analyzed by GraphPad Prism 5
as §4
(§8) (3) Maximum signal: signal of DMSO well
(§9) (4) Minimum signal: signal of medium well
as §5

A further series has as its system HCC70 cells. Nature of the series: Inhibition of cell proliferation, CellTiter-Glo, HCC70. The series is classed as cell-based. As to conditions: Homo sapiens, HCC70, 72 h. Here is the method: as §6, §1, §2, §3, §7, §4, §8, §9, §5
On the technique in general: Cellular ATP, detected with luciferase, serves as a proxy for viable cell number.

In the next series the target is CDK7/Cyclin H/MAT1 (Homo sapiens, UniProt P50613). Briefly: CDK7 inhibition, mobility shift assay.
Chain of CDK7/Cyclin H/MAT1 (P50613 whole entry): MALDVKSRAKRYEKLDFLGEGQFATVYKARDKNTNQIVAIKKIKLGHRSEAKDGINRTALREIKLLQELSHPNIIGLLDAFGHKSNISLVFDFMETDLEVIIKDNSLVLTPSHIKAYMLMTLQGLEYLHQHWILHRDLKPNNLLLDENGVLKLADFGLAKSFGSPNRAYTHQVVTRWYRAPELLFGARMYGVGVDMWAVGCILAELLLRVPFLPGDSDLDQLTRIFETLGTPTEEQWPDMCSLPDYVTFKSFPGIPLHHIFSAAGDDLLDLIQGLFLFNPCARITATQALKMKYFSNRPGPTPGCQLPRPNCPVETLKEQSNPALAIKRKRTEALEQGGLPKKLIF
Chain of CDK7/Cyclin H/MAT1 (P51946 whole entry partner): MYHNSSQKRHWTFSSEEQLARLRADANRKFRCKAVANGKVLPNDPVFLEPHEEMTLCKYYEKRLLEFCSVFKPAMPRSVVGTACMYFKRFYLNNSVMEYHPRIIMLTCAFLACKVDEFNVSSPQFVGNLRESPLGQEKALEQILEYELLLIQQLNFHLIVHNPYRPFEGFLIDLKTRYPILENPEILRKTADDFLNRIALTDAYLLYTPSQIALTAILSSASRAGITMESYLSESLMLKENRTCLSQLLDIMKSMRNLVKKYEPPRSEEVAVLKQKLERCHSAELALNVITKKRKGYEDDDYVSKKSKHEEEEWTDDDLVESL
Chain of CDK7/Cyclin H/MAT1 (P51948 whole entry partner): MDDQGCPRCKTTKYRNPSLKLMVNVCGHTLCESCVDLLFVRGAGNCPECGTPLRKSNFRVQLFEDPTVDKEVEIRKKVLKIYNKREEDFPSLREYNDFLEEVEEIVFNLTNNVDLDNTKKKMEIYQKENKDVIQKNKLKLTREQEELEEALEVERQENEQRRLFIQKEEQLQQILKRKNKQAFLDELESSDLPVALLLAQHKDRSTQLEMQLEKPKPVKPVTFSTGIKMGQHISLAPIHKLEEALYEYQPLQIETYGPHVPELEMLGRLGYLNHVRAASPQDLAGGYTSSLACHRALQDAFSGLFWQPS
[4] abbreviates: 25 mg/kg p.o. QD × 21 days, mean value ± standard error.
The mark [5] stands for this setting: Efficacy Example 2 (Table 2), 72 h incubation.
[6] abbreviates: Efficacy Example 3 (Table 3), incubation for 3 days.

Each structure is given as a SMILES string.

Protocol for CDK7/Cyclin H/MAT1: The initial concentration of compound was 10 μM, and the compound was 3-fold diluted to obtain 10 concentrations. Duplicate wells were set for the assay, and the pre-incubation time of compound and enzyme was 60 min.
Compound powders were dissolved in 100% DMSO to prepare 10 mM stock solution, which was 3-fold diluted with DMSO, with 0.5 mM as the initial concentration, to obtain 10 concentration gradients of compound solutions.
(1) Compound at each concentration was 8.3-fold diluted with ddH2O, and then 2 μL of each compound solution and positive control were added to a 384-well plate.
(2) 5 μL of a kinase working solution (CDK7/Cyclin H/MAT1) was added to the compound wells and positive control wells to make the final concentration of CDK7 be 3 nM.
(3) The plate was pre-incubated at room temperature for 60 min.
(5) The 384-well plate was incubated at 27° C. for 36 min.
(6) 4 μL of 80 mM EDTA was added to terminate the reaction.
(7) The conversion rates were read using a Caliper EZ Reader II.

By AUC(0-inf) is commonly meant the area under the concentration-time curve extrapolated to infinity. The AUC(0-t) is the area under the concentration-time curve up to a stated or last time point. One may read the Cmax as the highest concentration seen after dosing. As a reminder, the Tmax is the time at which the peak concentration occurs. Broadly, the half-life is the time needed for the level to fall by half in the phase considered. Read a low half-life as fast loss. The IC50 is the concentration that gives 50% inhibition. `Cc1nc(NC2CCN(C(=O)O[C@H]3CCN(C(=O)/C=C/CN(C)C)C3)CC2)c2ncc(C(C)C)n2n1` [SZ-015268, (S,E)-1-(4-(dimethylamino)but-2-enoyl)pyrrolidin-3-yl 4-((7-isopropyl-2-methylimidazo[2,1-f][1,2,4]triazin-4-yl)amino)piperidin-1-carboxylate]: the AUC(0-inf) in series [1] (male, ICR, mouse, po, plasma) came out at 3150 ng·h/mL; in series [3] (male, SD, rat, po, plasma), 4510 ng·h/mL. Moreover, the AUC(0-t) in series [1] (male, ICR, mouse, po, plasma) is 3100 ng·h/mL; in series [3] (male, SD, rat, po, plasma), 4450 ng·h/mL. Moreover, the Cmax in series [1] (male, ICR, mouse, po, plasma) came out at 1540 ng/mL; in series [3] (male, SD, rat, po, plasma), 543 ng/mL. In addition, the Tmax in series [1] (male, ICR, mouse, po, plasma) stood at 0.42 h; in series [3] (male, SD, rat, po, plasma), 4 h. In addition, the half-life in series [1] (male, ICR, mouse, po, plasma) is 1.39 h; in series [3] (male, SD, rat, po, plasma), 3.92 h. Besides, the “Cmax and AUC compared with the control compound SZ-015200” value in series [1] (in words) is “not lower”; in series [3] (in words), “The results show that compared with the control compound SZ-015200, the Cmax and the AUC of SZ-015256 and SZ-015268 in rats after single intragastric administration were significantly higher, which indicates that SZ-015256 and SZ-015268 have better pharmacokinetic properties”. Further, the “Tumor inhibition rate (TGI)” value in series [2] (25 mg/kg p.o. QD × 21 days, day 21) worked out at 84.3%. Further, the “% proliferation percentage of tumor volume (Day 21 after grouping)” value in series [2] (setting [4]) is on record as 167 ± 39%. In addition, the “Tumor volume (day 21 after grouping)” value in series [2] (setting [4]) was 172 ± 41 mm^3. In addition, the “Effect on inhibiting tumor proliferation compared with the control compound SZ-015200 (in words)” value in series [2] (HCT116 xenograft, p.o. QD × 21 days) is listed as “stronger effect on inhibiting tumor proliferation”. The “Anti-tumor effect (in words)” value in series [2] (SZ-015256: 25 mg/kg and 15 mg/kg treatment groups, SZ-015268 and SZ-015200: 25 mg/kg treatment group) is “significant anti-tumor effect”. Further, the IC50 in the series on HCT116 cells was determined as 12.5 nM; in the series on HCC1806 cells, 61.5 nM; in the series on OVCAR3 cells (setting [5]), 29.9 nM; in the series with OVCAR3 cells (setting [6]) it was 80.6 nM; in the series on HCC70 cells (setting [5]), 57.5 nM; in the series with HCC70 cells (setting [6]) it was 33 nM.
`Cc1cc2c(ncn2C(C)C)c(NC2CCN(C(=O)O[C@H]3CCN(C(=O)/C=C/CN(C)C)C3)CC2)n1` [SZ-015272, (S,E)-1-(4-(dimethylamino)but-2-enoyl)pyrrolidin-3-yl 4-((1-isopropyl-6-methyl-1H-imidazo[4,5-c]pyridin-4-yl)amino)piperidine-1-carboxylate]: the figures for the IC50 in the series with OVCAR3 cells (setting [5]), in the series on HCC70 cells (setting [5]) and at CDK7/Cyclin H/MAT1 were 460 nM, 948 nM and 278 nM, respectively.
Regarding `Cc1cn2c(C(C)C)cnc2c(NC2CCN(C(=O)O[C@H]3CCN(C(=O)/C=C/CN(C)C)C3)CC2)n1` [SZ-015274], the IC50 with OVCAR3 cells (setting [5]) amounted to 151 nM; in the series on HCC70 cells (setting [5]), 187 nM; on CDK7/Cyclin H/MAT1 it was 197 nM.
Turning to `Cc1nc(NC2CCN(C(=O)O[C@H]3CCN(C(=O)/C=C/CN(C)C)C3)CC2)c2ncc(C(C)C)n2n1` [SZ-0015268], the half-maximal inhibitory concentration (IC50) on CDK7/Cyclin H/MAT1 was determined as 23.6 nM.
Take `CC[C@H](CO)Nc1cc(NC2CCN(C(=O)O[C@H]3CCN(C(=O)/C=C/CN(C)C)C3)CC2)c2ncc(C(C)C)n2n1` [SZ-015317, (S)-1-((E)-4-(dimethylamino)but-2-enoyl)pyrrolidin-3-yl 4-((6-(((R)-1-hydroxybutan-2-yl)amino)-3-isopropylimidazo[1,2-b]pyridazin-8-yl)amino) piperidine-1-carboxylate]: the IC50 in the series on OVCAR3 cells (setting [5]) was determined as 429 nM; in the series on HCC70 cells (setting [5]), 237 nM.
As to `Cc1cc(NC2CCN(C(=O)O[C@H]3CCN(C(=O)/C=C/CN(C)C)C3)CC2)c2ncn(C(C)C)c2n1` [SZ-015095, (S,E)-1-(4-(dimethylamino)but-2-enoyl)pyrrolidin-3-yl 4-((3-isopropyl-5-methyl-3H-imidazo[4,5-b]pyridin-7-yl)amino)piperidine-1-carboxylate], the IC50 in the series with OVCAR3 cells (setting [5]) was 138 nM; in the series with HCC70 cells (setting [5]), 479 nM; on CDK7/Cyclin H/MAT1, 128 nM.
Take `CC[C@H](CO)Nc1nc(NC2CCN(C(=O)O[C@H]3CCN(C(=O)/C=C/CN(C)C)C3)CC2)c2ncn(C(C)C)c2n1` [SZ-015295, (S)-1-((E)-4-(dimethylamino)but-2-enoyl)pyrrolidin-3-yl 4-((2-(((R)-1-hydroxybutan-2-yl)amino)-9-isopropyl-9H-purin-6-yl)amino)piperidine-1-carboxylate]: the IC50 in the series with OVCAR3 cells (setting [5]) was 62.8 nM; in the series with HCC70 cells (setting [5]), 110 nM.
As to `CCn1cnc2c(NC3CCN(C(=O)O[C@H]4CCN(C(=O)/C=C/CN(C)C)C4)CC3)ccnc21` [SZ-015285, (S,E)-1-(4-(dimethylamino)but-2-enoyl)pyrrolidin-3-yl 4-((3-ethyl-3H-imidazo[4,5-b]pyridin-7-yl)amino)piperidine-1-carboxylate], the IC50 in the series on OVCAR3 cells (setting [5]) worked out at 620 nM; in the series on HCC70 cells (setting [5]), 1050 nM.
For the molecule `CC(C)n1cnc2c(NC3CCN(C(=O)O[C@H]4CCN(C(=O)/C=C/CN(C)C)C4)CC3)ccnc21` [SZ-015286, (S,E)-1-(4-(dimethylamino)but-2-enoyl)pyrrolidin-3-yl 4-((3-isopropyl-3H-imidazo[4,5-b]pyridin-7-yl)amino)piperidine-1-carboxylate], the IC50 amounted to 167 nM in the series on OVCAR3 cells (setting [5]) and 570 nM in the series with HCC70 cells (setting [5]).
For the molecule `Cc1cc(NC2CCN(C(=O)O[C@H]3CCN(C(=O)/C=C/CN(C)C)C3)CC2)c2ncc(C(C)C)n2n1` [SZ-015273, (S,E)-1-(4-(dimethylamino)but-2-enoyl)pyrrolidin-3-yl 4-((3-isopropyl-6-methylimidazo[1,2-b]pyridazin-8-yl)amino)piperidin-1-carboxylate], the results for the IC50 in the series on OVCAR3 cells (setting [5]), in the series with HCC70 cells (setting [5]) and on CDK7/Cyclin H/MAT1 were 31.9 nM, 291 nM and 44.5 nM, respectively.
Consider `CC[C@H](CO)Nc1cc(NC2CCN(C(=O)O[C@H]3CCN(C(=O)/C=C/CN(C)C)C3)CC2)c2ncn(C(C)C)c2n1` [SZ-015306, (S)-1-((E)-4-(dimethylamino)but-2-enoyl)pyrrolidin-3-yl 4-((5-(((R)-1-hydroxybutan-2-yl)amino)-3-isopropyl-3H-imidazo[4,5-b]pyridin-7-yl)amino)piperidine-1-carboxylate], for which the values for the half-inhibitory concentration (IC50) in the series with OVCAR3 cells (setting [5]) and in the series on HCC70 cells (setting [5]) were 281 nM and 205 nM, respectively.
With `CC(C)Nc1cc(NC2CCN(C(=O)O[C@H]3CCN(C(=O)/C=C/CN(C)C)C3)CC2)c2ncn(C(C)C)c2n1` [SZ-015303, (S,E)-1-(4-(dimethylamino)but-2-enoyl)pyrrolidin-3-yl 4-((3-isopropyl-5-(isopropylamino)-3H-imidazo[4,5-b]pyridin-7-yl)amino)piperidine-1-carboxylate], the IC50 with OVCAR3 cells (setting [5]) amounted to 114 nM; in the series on HCC70 cells (setting [5]) it was 129 nM.
